This is an account of results in PMC10927578, “Structural basis for CFTR inhibition by CFTRinh-172” (Proceedings of the National Academy of Sciences of the …, 2024).

For test [1], the target named is T1, WT CFTR (Homo sapiens, UniProt P13569).
T1 construct: GFP (PreScission Protease-cleavable) (C, cleaved yes); made in house; host or cells: HEK293S GnTI- suspension cells infected with BacMam baculovirus
The test can be described thus: Inside-out excised patch macroscopic current recording, WT CFTR. The test is classed as biochemical. As to conditions: inside-out patches, 3 mM ATP.

Test [2] deals with T2, CFTR (E1371Q) (Homo sapiens, UniProt P13569, E1371Q).
T2 construct: expressed in transfected cells; host or cells: CHO-K1 (ATCC CCL-61)
T2 sequence (P13569 whole entry E1371Q): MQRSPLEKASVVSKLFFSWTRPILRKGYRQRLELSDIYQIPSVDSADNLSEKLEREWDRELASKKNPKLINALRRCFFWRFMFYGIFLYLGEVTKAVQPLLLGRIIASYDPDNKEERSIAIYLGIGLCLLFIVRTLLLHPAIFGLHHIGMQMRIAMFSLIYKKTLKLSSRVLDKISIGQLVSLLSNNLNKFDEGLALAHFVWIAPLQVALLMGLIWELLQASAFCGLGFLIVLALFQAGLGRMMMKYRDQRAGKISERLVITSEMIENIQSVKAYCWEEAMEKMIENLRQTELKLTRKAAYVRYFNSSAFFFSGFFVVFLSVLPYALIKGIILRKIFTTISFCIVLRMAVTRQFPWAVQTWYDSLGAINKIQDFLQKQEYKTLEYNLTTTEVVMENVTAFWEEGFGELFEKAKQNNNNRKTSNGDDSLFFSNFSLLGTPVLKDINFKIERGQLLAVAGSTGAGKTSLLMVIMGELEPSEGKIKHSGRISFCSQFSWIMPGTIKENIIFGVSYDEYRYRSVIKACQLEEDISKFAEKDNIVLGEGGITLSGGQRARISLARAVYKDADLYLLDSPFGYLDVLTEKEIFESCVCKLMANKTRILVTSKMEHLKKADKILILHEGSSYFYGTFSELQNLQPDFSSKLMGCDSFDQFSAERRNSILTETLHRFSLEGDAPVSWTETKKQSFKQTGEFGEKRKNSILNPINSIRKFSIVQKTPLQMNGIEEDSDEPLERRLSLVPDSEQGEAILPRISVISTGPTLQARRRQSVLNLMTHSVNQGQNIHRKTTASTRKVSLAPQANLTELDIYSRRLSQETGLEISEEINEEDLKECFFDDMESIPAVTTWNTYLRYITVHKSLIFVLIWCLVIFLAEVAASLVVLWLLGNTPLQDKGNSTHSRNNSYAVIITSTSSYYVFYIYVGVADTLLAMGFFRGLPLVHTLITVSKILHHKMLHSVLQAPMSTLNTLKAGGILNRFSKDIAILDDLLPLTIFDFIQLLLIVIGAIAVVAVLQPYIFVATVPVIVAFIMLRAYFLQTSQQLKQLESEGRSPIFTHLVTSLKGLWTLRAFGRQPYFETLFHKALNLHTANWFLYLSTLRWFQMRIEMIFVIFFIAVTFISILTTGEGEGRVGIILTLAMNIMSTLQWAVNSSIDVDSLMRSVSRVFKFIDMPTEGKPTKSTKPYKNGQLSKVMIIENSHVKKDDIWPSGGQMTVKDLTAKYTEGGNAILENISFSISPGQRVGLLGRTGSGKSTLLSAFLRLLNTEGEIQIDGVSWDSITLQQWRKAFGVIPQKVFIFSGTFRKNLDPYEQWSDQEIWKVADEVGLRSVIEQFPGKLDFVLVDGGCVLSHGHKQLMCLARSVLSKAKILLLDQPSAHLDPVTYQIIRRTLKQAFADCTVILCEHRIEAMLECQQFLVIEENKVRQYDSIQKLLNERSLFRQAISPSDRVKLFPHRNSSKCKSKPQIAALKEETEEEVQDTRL
The test can be described thus: Inside-out excised patch macroscopic current recording, CFTR (E1371Q). It counts as biochemical. As to conditions: 10 µM CFTRinh-172; inside-out patches; PKA-phosphorylated, 3 mM ATP.

The target of the next test is T3, K95A CFTR (Homo sapiens, UniProt P13569, K95A).
T3 construct: expressed in transfected cells; host or cells: CHO-K1 (ATCC CCL-61)
T3 sequence (P13569 whole entry K95A): as the sequence (P13569 whole entry E1371Q) above, with K95A, Q1371E counted along it
The test can be described thus: Inside-out excised patch titration, K95A CFTR. It counts as biochemical. The conditions noted are these: inside-out patches, 3 mM ATP, Hill coefficient fixed to 1.

The target of the next test is T4, T1142I CFTR (Homo sapiens, UniProt P13569, T1142I).
T4 construct: expressed in transfected cells; host or cells: CHO-K1 (ATCC CCL-61)
T4 sequence (P13569 whole entry T1142I): as the sequence (P13569 whole entry E1371Q) above, with T1142I, Q1371E counted along it
The test can be described thus: Inside-out excised patch titration, T1142I CFTR. The test is classed as biochemical. The conditions noted are these: inside-out patches, 3 mM ATP, Hill coefficient fixed to 1.

In another test the target is T5, S1141A CFTR (Homo sapiens, UniProt P13569, S1141A).
T5 construct: expressed in transfected cells; host or cells: CHO-K1 (ATCC CCL-61)
T5 sequence (P13569 whole entry S1141A): as the sequence (P13569 whole entry E1371Q) above, with S1141A, Q1371E counted along it
The test is described as follows: Inside-out excised patch titration, S1141A CFTR. The test is classed as biochemical. As to conditions: inside-out patches, 3 mM ATP.

Test [3] addresses T1, WT CFTR. The test is described as follows: Single-channel recording in synthetic planar lipid bilayer, WT CFTR. The test is classed as biochemical.
For test [4], the target named is T2, CFTR (E1371Q). The test is described as follows: Single-channel recording in synthetic planar lipid bilayer, CFTR (E1371Q). The test is classed as biochemical. The conditions noted are these: 10 µM CFTRinh-172, 3 mM ATP, -150 mV, mean and SE, 0.79 ± 0.03 without inhibitor.
The target in test [5] is T6, PKA-phosphorylated WT CFTR (Homo sapiens, UniProt P13569).
T6 construct: GFP (PreScission Protease-cleavable) (C, cleaved yes); made in house; host or cells: HEK293S GnTI- suspension cells infected with BacMam baculovirus
T6 sequence (P13569 whole entry): as the sequence (P13569 whole entry E1371Q) above, with Q1371E counted along it
The test is described as follows: Steady-state ATP hydrolysis, NADH-coupled assay. The conditions noted are these: 10 µM CFTRinh-172. The test is classed as biochemical.

The target of test [6] is T7, WT CFTR (Homo sapiens, UniProt P13569, C128S/C1344S/C1355S/C1395S/C1400S/C1410S/C1458S/C225S/C276S/C343S/C491S/C592M/C647S/C76L/C832S/C866S/S1435C/T388C).
T7 construct: GFP (PreScission Protease-cleavable) (C); made in house; host or cells: HEK293S GnTI- suspension cells infected with BacMam baculovirus
T7 sequence (P13569 1-1480 with the stated changes): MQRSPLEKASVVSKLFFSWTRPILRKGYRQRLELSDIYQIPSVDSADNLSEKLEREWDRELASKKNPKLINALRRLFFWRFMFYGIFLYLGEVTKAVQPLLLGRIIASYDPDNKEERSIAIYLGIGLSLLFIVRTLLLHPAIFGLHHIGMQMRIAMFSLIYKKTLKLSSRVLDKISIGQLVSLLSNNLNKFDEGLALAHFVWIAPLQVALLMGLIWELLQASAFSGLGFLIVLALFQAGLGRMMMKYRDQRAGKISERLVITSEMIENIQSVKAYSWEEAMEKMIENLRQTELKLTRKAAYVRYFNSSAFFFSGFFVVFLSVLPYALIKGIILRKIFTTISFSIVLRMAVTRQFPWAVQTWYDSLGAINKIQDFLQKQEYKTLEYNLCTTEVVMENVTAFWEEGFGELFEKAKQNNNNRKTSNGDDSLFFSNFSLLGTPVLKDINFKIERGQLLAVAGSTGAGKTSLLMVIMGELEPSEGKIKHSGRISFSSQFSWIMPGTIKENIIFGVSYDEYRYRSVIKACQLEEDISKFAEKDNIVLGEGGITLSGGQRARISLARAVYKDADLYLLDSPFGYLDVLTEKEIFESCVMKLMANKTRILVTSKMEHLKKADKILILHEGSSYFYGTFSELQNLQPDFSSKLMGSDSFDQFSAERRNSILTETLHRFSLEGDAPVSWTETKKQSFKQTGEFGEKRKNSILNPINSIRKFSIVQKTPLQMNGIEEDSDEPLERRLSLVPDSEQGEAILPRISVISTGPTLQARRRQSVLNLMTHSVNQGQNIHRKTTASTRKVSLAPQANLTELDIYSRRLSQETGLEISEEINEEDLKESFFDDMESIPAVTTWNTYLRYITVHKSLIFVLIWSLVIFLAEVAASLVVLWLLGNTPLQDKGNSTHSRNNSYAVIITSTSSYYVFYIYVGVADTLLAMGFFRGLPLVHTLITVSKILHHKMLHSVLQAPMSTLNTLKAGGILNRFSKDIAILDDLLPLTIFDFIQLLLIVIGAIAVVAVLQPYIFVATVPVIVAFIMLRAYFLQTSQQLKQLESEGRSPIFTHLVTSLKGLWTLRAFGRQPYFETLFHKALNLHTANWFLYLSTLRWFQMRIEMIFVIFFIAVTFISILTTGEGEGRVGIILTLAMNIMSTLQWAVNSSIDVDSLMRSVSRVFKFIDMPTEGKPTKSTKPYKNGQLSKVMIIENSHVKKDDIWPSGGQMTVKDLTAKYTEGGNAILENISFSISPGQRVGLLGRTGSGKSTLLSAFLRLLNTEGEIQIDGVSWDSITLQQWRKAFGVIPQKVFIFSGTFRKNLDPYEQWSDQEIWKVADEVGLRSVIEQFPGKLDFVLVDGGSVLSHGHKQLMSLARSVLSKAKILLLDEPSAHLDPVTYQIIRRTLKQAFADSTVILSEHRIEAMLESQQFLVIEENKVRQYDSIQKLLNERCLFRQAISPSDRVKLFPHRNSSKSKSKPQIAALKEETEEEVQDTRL
The test is described as follows: smFRET imaging of NBD dimerization, WT CFTR. It counts as biochemical. The conditions noted are these: 10 µM CFTRinh-172, 3 mM ATP.

Test [7] concerns the target T8, CFTR (E1371Q) (Homo sapiens, UniProt P13569, C128S/C1344S/C1355S/C1395S/C1400S/C1410S/C1458S/C225S/C276S/C343S/C491S/C592M/C647S/C76L/C832S/C866S/E1371Q/S1435C/T388C).
T8 construct: GFP (PreScission Protease-cleavable) (C); made in house; host or cells: HEK293S GnTI- suspension cells infected with BacMam baculovirus
The test can be described thus: smFRET imaging of NBD dimerization, CFTR (E1371Q). The conditions noted are these: with CFTRinh-172. The test is classed as biochemical.

Another test relates to CFTR R347A. Set-up: method as in PMID 18366345. The conditions noted are these: R347A vs WT CFTR; cited from earlier work.
The test system of the next test is CFTR R347D. Set-up: method as in PMID 18366345. The conditions noted are these: cited from earlier work.
The test system of test [8] is cholera toxin-induced intestinal fluid secretion. The conditions noted are these: in vivo; cited from earlier work.
The next test concerns cyst growth. Set-up: method as in PMID 18385427. As to conditions: animal models of polycystic kidney disease; cited from earlier work.
In a further test the test system is CFTR. Set-up: method as in PMID 36949202. As to conditions: cited from earlier work; for effect on channel activity: by increasing pore opening while the NBDs are dimerized.

Broadly, the IC50 is the point on the concentration scale where inhibition reaches its midpoint. Low values mean greater potency, high ones weaker potency.

T1 sequence (P13569 whole entry): as the sequence (P13569 whole entry E1371Q) above, with Q1371E counted along it
T8 sequence (P13569 1-1480 with the stated changes): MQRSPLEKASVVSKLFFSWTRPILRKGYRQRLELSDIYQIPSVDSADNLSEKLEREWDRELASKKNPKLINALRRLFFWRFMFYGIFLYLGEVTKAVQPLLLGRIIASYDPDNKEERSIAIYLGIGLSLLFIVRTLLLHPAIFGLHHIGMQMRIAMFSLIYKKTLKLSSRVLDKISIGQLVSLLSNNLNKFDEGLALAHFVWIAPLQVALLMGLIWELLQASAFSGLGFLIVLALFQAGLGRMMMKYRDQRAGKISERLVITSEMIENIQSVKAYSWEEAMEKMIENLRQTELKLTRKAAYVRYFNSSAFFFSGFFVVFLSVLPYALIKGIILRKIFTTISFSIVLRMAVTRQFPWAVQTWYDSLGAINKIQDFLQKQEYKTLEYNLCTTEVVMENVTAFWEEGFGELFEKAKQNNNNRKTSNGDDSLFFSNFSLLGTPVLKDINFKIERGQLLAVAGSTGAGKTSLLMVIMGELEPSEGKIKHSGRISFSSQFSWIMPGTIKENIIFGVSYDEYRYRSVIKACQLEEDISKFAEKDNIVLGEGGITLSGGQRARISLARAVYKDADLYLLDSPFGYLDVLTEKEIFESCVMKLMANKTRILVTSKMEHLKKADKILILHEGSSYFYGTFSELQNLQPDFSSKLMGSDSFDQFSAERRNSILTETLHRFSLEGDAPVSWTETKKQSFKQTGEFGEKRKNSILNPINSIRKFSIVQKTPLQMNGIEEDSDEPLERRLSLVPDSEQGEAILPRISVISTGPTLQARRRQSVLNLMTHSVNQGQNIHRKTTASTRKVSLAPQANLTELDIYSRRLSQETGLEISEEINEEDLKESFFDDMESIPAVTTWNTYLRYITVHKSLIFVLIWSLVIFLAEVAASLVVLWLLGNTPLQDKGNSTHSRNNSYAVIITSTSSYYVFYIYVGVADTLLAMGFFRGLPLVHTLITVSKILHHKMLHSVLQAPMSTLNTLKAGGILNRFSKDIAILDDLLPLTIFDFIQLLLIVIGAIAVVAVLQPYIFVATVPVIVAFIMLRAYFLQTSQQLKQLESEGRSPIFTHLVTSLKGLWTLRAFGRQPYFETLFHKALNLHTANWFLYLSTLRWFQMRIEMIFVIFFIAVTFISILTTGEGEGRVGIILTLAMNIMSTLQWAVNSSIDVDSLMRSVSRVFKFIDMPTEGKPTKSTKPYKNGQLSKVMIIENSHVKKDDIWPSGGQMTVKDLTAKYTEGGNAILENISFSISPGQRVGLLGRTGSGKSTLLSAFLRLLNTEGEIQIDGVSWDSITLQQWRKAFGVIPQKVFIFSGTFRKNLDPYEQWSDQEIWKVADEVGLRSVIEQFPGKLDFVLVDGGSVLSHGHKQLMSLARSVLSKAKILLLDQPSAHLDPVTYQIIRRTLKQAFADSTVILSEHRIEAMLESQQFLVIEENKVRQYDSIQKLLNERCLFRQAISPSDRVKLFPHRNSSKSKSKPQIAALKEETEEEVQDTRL

Consider `O=C(O)c1ccc(/C=C2\SC(=S)N(c3cccc(C(F)(F)F)c3)C2=O)cc1` [CFTRinh-172], for which the “reduction of macroscopic current” value at WT CFTR [1] (10 µM CFTRinh-172, PKA-phosphorylated) is listed as 96%. Further, the IC50 amounted to 0.6 ± 0.1 µM against WT CFTR [1] (WT CFTR, Hill coefficient fixed to 1); 3.5 ± 0.9 µM against K95A CFTR; 5.3 ± 3.1 µM against T1142I CFTR. Also, the “inhibition of macroscopic current relative to WT CFTR” value at CFTR (E1371Q) [2] is listed as “comparable level of inhibition”. For the same molecule, the “effect of S1141A substitution on inhibitory potency” value at S1141A CFTR is given as “no effect on inhibitory potency”. Also, the open probability was 0.007 ± 0.003 at WT CFTR [3] (10 µM CFTRinh-172, 3 mM ATP, -150 mV, mean and SE, 0.21 ± 0.05 without inhibitor); 0.0011 ± 0.0004 on CFTR (E1371Q) [4]. Also, on WT CFTR [3] (with CFTRinh-172, 3 mM ATP, 487 ± 92 ms without inhibitor), the “mean open dwell time” value came to 109 ± 14 ms. For the same molecule, in [5], the “change of Michaelis-Menten constant (Km) for ATP” value is “not significantly changed”. Further, the “saturating ATP turnover (kcat)” value in test [5] (22.0 ± 2.2 without inhibitor) turned out to be 5.2 ± 1.0 ATP/protein/min. Moreover, the “effect on dwell time of the NBD-dimerized state” value at WT CFTR [6] was “did not significantly affect”. The “effect on probability of NBD dimerization” value at WT CFTR [6] is on record as “did not significantly affect”. Besides, the “effect on conformational dynamics” value at CFTR (E1371Q) [7] is listed as “did not affect”. The “decrease in potency on substitution of R347 with alanine” value in the test on CFTR R347A was “over 30 fold”. For the same molecule, the “effect of R347D substitution on inhibition” value with CFTR R347D is “nearly eliminated its inhibitory effect”. In addition, in test [8], the “cholera toxin-induced intestinal fluid secretion” value is listed as “block cholera toxin-induced intestinal fluid secretion”. In the test with cyst growth, the cyst growth result is “suppress cyst growth”.

Consider `CC1(C)Cc2c(sc(NC(=O)c3ccn[nH]3)c2C(N)=O)C(C)(C)O1` [GLPG1837, N-(3-Carbamoyl-5,5,7,7-tetramethyl-5,7-dihydro-4H-thieno[2,3-c]pyran-2-yl)-lH-pyrazole-5-carboxamide], for which, in the test with CFTR, the “effect on channel activity” value is recorded as “enhance channel activity” and the “effect on ATP turnover” value was “increase ATP turnover”.

For the molecule `CC(C)(C)c1cc(C(C)(C)C)c(NC(=O)c2c[nH]c3ccccc3c2=O)cc1O` [Ivacaftor, N-(2,4-Di-tert-butyl-5-hydroxyphenyl)-4-oxo-1,4-dihydroquinoline-3-carboxamide], in the test with CFTR, the “effect on channel activity” value is reported as “enhance channel activity” and the “effect on ATP turnover” value is reported as “increase ATP turnover”.
